Converted amounts (≈) assume the structure as drawn.
Assays:
Format in all cases: functional
P388 = test: Growth inhibition of mouse P388 cells; details: read-out: ED50 (the source's name)
ACHN = test: Cytotoxicity against human ACHN cells
St-4 = test: Cytotoxicity against human St4 cells
[1] = Cytotoxicity against human MKN1 cells; details: MKN-1
MKN-7 = test: Cytotoxicity against human MKN7 cells
MKN-28 = test: Cytotoxicity against human MKN28 cells
MKN-45 = test: Cytotoxicity against human MKN45 cells
MKN-74 = test: Cytotoxicity against human MKN74 cells
DU-145 = test: Cytotoxicity against human DU145 cells
OVCAR-5 = test: Cytotoxicity against human OVCAR5 cells
PC-3 = test: Cytotoxicity against human PC3 cells
[2] = Cytotoxicity against human HBC4 cells
[3] = Cytotoxicity against human BSY1 cells; details: BSY-1
[4] = Cytotoxicity against human HBC5 cells
MCF7 = test: Cytotoxicity against human MCF7 cells
MDA-MB-231 = test: Cytotoxicity against human MDA-MB-231 cells
U-251 = test: Cytotoxicity against human U251 cells
SF-268 = test: Cytotoxicity against human SF268 cells
SF-295 = test: Cytotoxicity against human SF295 cells
SF-539 = test: Cytotoxicity against human SF539 cells
SNB-75 = test: Cytotoxicity against human SNB75 cells
SNB-78 = test: Cytotoxicity against human SNB78 cells
HCC 2998 = test: Cytotoxicity against human HCC2998 cells
KM12 = test: Cytotoxicity against human KM12 cells
HT-29 = test: Cytotoxicity against human HT29 cells
HCT-15 = test: Cytotoxicity against human HCT15 cells
HCT-116 = test: Cytotoxicity against human HCT116 cells
NCI-H23 = test: Cytotoxicity against human NCI-H23 cells
NCI-H226 = test: Cytotoxicity against human NCI-H226 cells
NCI-H522 = test: Cytotoxicity against human NCI-H522 cells
NCI-H460 = test: Cytotoxicity against human NCI-H460 cells
A549 = test: Cytotoxicity against human A549 cells
DMS-273 = test: Cytotoxicity against human DMS273 cells
DMS-114 = test: Cytotoxicity against human DMS114 cells
LOX IMVI = test: Cytotoxicity against human LOX IMVI cells
OVCAR-3 = test: Cytotoxicity against human OVCAR-3 cells
OVCAR-4 = test: Cytotoxicity against human OVCAR4 cells
OVCAR-8 = test: Cytotoxicity against human OVCAR8 cells
SK-OV-3 = test: Cytotoxicity against human SKOV3 cells
[5] = Cytotoxicity against human RXF631L cells; details: RXF 631

| SMILES | EC50 (P388) | GI50 (ACHN) | GI50 (St-4) | GI50 [1] | GI50 (MKN-7) | GI50 (MKN-28) | GI50 (MKN-45) | GI50 (MKN-74) | GI50 (DU-145) | GI50 (OVCAR-5) | GI50 (PC-3) | GI50 [2] | GI50 [3] | GI50 [4] | GI50 (MCF7) | GI50 (MDA-MB-231) | GI50 (U-251) | GI50 (SF-268) | GI50 (SF-295) | GI50 (SF-539) | further results |
| --- | --- | --- | --- | --- | --- | --- | --- | --- | --- | --- | --- | --- | --- | --- | --- | --- | --- | --- | --- | --- | --- |
| CC(C)[C@@H](C)/C=C/[C@@H](C)[C@H]1CCC(=O)[C@]23CC(=O)[C@@H]4CC(=O)CC[C@]4(C)[C@H]2CC[C@]13C [DANKASTERONE B] | 2.8 µg/mL (≈ 6.56 µM) |  |  |  |  |  |  |  |  |  |  |  |  |  |  |  |  |  |  |  |  |
| CC(C)[C@@H](C)/C=C/[C@@H](C)[C@H]1C[C@H]2O[C@]23C2=CC(=O)[C@@H]4CC(=O)CC[C@]4(C)[C@H]2CC[C@]13C [GYMNASTERONE B] | 1.6 µg/mL (≈ 3.77 µM) | > 100 µM | > 100 µM | 45.7 µM | 47.9 µM | 60.3 µM | 72.4 µM | 83.2 µM | 28.8 µM | 44.7 µM | 89.1 µM | > 100 µM | 15.1 µM | 26.9 µM | 33.9 µM | 33.1 µM | > 100 µM | > 100 µM | 36.3 µM | > 100 µM | GI50 (SNB-75): 56.2 µM; GI50 (SNB-78): > 100 µM; GI50 (HCC 2998): 51.3 µM; GI50 (KM12): 67.6 µM; GI50 (HT-29): 30.2 µM; GI50 (HCT-15): 69.2 µM; GI50 (HCT-116): 95.5 µM; GI50 (NCI-H23): 70.8 µM; GI50 (NCI-H226): 41.7 µM; GI50 (NCI-H522): 26.9 µM; GI50 (NCI-H460): > 100 µM; GI50 (A549): > 100 µM; GI50 (DMS-273): 41.7 µM; GI50 (DMS-114): 12.9 µM; GI50 (LOX IMVI): 87.1 µM; GI50 (OVCAR-3): 66.1 µM; GI50 (OVCAR-4): 49 µM; GI50 (OVCAR-8): 67.6 µM; GI50 (SK-OV-3): > 100 µM; GI50 [5]: > 100 µM |
| CCCCCC[C@H](C)/C=C(C)/C=C/C(=O)N[C@]1(C=O)C[C@H]2C[C@H]([C@H](C)/C=C/[C@H](C)C(C)C)[C@@]3(C)CC[C@H]4C(=C1C(=O)C1=C[C@@H](O)CC[C@@]14C)[C@@]23O [GYMNASTERONE A] |  | > 100 µM | > 100 µM | > 75.9 µM | 53.7 µM | > 38 µM | > 100 µM | 28.2 µM | > 100 µM | > 100 µM | > 100 µM | > 100 µM | > 100 µM | > 91.2 µM | 58.9 µM | > 100 µM | > 100 µM | 21.9 µM | 87.1 µM | 50.1 µM | GI50 (SNB-75): > 100 µM; GI50 (SNB-78): 12.9 µM; GI50 (HCC 2998): > 100 µM; GI50 (KM12): > 100 µM; GI50 (HT-29): > 100 µM; GI50 (HCT-15): > 100 µM; GI50 (HCT-116): > 100 µM; GI50 (NCI-H23): > 100 µM; GI50 (NCI-H226): 28.2 µM; GI50 (NCI-H522): 28.2 µM; GI50 (NCI-H460): > 100 µM; GI50 (A549): > 100 µM; GI50 (DMS-273): > 100 µM; GI50 (DMS-114): 72.4 µM; GI50 (LOX IMVI): > 100 µM; GI50 (OVCAR-3): 39.8 µM; GI50 (OVCAR-4): 67.6 µM; GI50 (OVCAR-8): > 100 µM; GI50 (SK-OV-3): > 100 µM; GI50 [5]: 12.9 µM |

Now from value to compound, other results behind:

| EC50 (P388) | SMILES | GI50 (ACHN) | GI50 (St-4) | GI50 [1] | GI50 (MKN-7) | GI50 (MKN-28) | GI50 (MKN-45) | GI50 (MKN-74) | GI50 (DU-145) | GI50 (OVCAR-5) | GI50 (PC-3) | GI50 [2] | GI50 [3] | GI50 [4] | GI50 (MCF7) | GI50 (MDA-MB-231) | GI50 (U-251) | GI50 (SF-268) | GI50 (SF-295) | GI50 (SF-539) | further results |
| --- | --- | --- | --- | --- | --- | --- | --- | --- | --- | --- | --- | --- | --- | --- | --- | --- | --- | --- | --- | --- | --- |
| 0.9 µg/mL (≈ 2.2 µM) | CC(C)[C@@H](C)/C=C/[C@@H](C)[C@H]1CC(=O)C2=C3C=CC4=C[C@@H](O)CC[C@]4(C)[C@H]3CC[C@@]21C [GYMNASTERONE C] |  |  |  |  |  |  |  |  |  |  |  |  |  |  |  |  |  |  |  |  |
| 2.5 µg/mL (≈ 6.15 µM) | CC(C)[C@@H](C)/C=C/[C@@H](C)[C@H]1CC(=O)C2=C3C=CC4=CC(=O)CC[C@]4(C)[C@H]3CC[C@@]21C [GYMNASTERONE D] |  |  |  |  |  |  |  |  |  |  |  |  |  |  |  |  |  |  |  |  |
| 2.2 µg/mL (≈ 5.18 µM) | CC(C)[C@@H](C)/C=C/[C@@H](C)[C@H]1CCC(=O)[C@]23CC(=O)C4=CC(=O)CC[C@]4(C)[C@H]2CC[C@]13C [DANKASTERONE A] | 2.4 µM | 12.9 µM | 1.82 µM | 4.57 µM | 3.98 µM | 11 µM | 4.37 µM | 4.07 µM | 2.29 µM | 5.62 µM | 4.37 µM | 2.19 µM | 3.31 µM | 3.72 µM | 5.89 µM | 3.72 µM | 2.82 µM | 3.72 µM | 2.09 µM | GI50 (SNB-75): 4.27 µM; GI50 (SNB-78): 3.02 µM; GI50 (HCC 2998): 1.91 µM; GI50 (KM12): 3.72 µM; GI50 (HT-29): 8.13 µM; GI50 (HCT-15): 2.51 µM; GI50 (HCT-116): 2.29 µM; GI50 (NCI-H23): 3.8 µM; GI50 (NCI-H226): 3.8 µM; GI50 (NCI-H522): 2.51 µM; GI50 (NCI-H460): 11 µM; GI50 (A549): 14.1 µM; GI50 (DMS-273): 1.7 µM; GI50 (DMS-114): 1.7 µM; GI50 (LOX IMVI): 2.19 µM; GI50 (OVCAR-3): 2 µM; GI50 (OVCAR-4): 2.4 µM; GI50 (OVCAR-8): 3.63 µM; GI50 (SK-OV-3): 15.8 µM; GI50 [5]: 15.8 µM |

Source: ChEMBL document CHEMBL1141344, “Variation in cytostatic constituents of a sponge-derived Gymnascella dankaliensis by manipulating the carbon source” (2007)
